Experimental data reported in ChEMBL document CHEMBL1155503, “Synthesis of neurotensin(8-13)-phosphopeptide heterodimers via click chemistry” (Bioorg Med Chem Lett, 2010).
Where a SMILES comes first, the peptide text is derived from it.

Biological target: Neurotensin receptor type 1 (Homo sapiens, UniProt P30989)
Test: Displacement of [3H]neurotensin from NTR1 in human HT29 cells after 30 mins by liquid scintillation spectrometry
Format: cell-based, HT-29
Settings: for Activity: HT-29

Sequence of Neurotensin receptor type 1 (P30989 whole entry): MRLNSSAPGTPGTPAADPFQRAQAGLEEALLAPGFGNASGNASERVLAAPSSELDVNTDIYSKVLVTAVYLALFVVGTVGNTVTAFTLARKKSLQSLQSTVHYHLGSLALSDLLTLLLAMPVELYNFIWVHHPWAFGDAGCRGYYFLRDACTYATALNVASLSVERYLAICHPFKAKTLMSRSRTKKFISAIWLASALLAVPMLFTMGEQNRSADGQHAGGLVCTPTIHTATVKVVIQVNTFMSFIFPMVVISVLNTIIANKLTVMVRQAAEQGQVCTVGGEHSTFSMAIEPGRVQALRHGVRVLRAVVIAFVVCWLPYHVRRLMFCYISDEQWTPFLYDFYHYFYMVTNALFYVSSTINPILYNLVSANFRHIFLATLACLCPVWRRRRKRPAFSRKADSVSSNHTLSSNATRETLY

| IC50 [nM] | Activity | SMILES |
| --- | --- | --- |
| 700 | – | CSCC[C@H](NC(=O)CCCCn1cc(CCCC(=O)N[C@@H](CCCN=C(N)N)C(=O)N[C@@H](CCCN=C(N)N)C(=O)N2CCC[C@H]2C(=O)N[C@@H](Cc2ccc(O)cc2)C(=O)N[C@@H](CC(C)C)C(=O)N[C@@H](CC(C)C)C(=O)O)nn1)C(=O)N[C@@H](CCC(N)=O)C(=O)N[C@@H](CO)C(=O)N[C@H](C(=O)N1CCC[C@H]1C(=O)N[C@@H](CC(C)C)C(=O)O)[C@@H](C)O |
| 1 | – | CC(C)C[C@H](NC(=O)[C@H](CC(C)C)NC(=O)[C@H](Cc1ccc(O)cc1)NC(=O)[C@@H]1CCCN1C(=O)[C@H](CCCNC(=N)N)NC(=O)[C@@H](N)CCCNC(=N)N)C(=O)O (H-RRPYLL-OH) |
| 8300 | Dose-dependent effect | CSCC[C@H](NC(=O)CCCCn1cc(CCCC(=O)N[C@@H](CCCNC(=N)N)C(=O)N[C@@H](CCCNC(=N)N)C(=O)N2CCC[C@H]2C(=O)N[C@@H](Cc2ccc(O)cc2)C(=O)N[C@@H](CC(C)C)C(=O)N[C@@H](CC(C)C)C(=O)O)nn1)C(=O)N[C@@H](CCC(N)=O)C(=O)N[C@@H](CO)C(=O)N[C@H](C(=O)N1CCC[C@H]1C(=O)N[C@@H](CC(C)C)C(=O)O)[C@@H](C)OP(=O)(O)O |
| – | Dose-dependent effect | CSCC[C@H](NC(=O)CCCCn1cc(CCCC(=O)N[C@@H](CCCNC(=N)N)C(=O)N[C@@H](CCCNC(=N)N)C(=O)N2CCC[C@H]2C(=O)N[C@@H](Cc2ccc(O)cc2)C(=O)N[C@@H](CC(C)C)C(=O)N[C@@H](CC(C)C)C(=O)O)nn1)C(=O)N[C@@H](CCC(N)=O)C(=O)N[C@@H](CO)C(=O)N[C@H](C(=O)N1CCC[C@H]1C(=O)N[C@@H](CC(C)C)C(=O)O)[C@@H](C)O |
